Assay results published in US20100292210A1, “Novel Compounds for A-Beta-Related Pathologies” (AstraZeneca AB, priority 2009, published 2010).

Tested on: Aβ42 release
Assay: Aβ42 release from HEK cells stably expressing APPswe, Meso Scale Discovery electrochemiluminescence assay
Format: cell-based
Settings: Homo sapiens, HEK293; HEK cell line stably expressing APPswe; 4-6 h incubation with test compound; Aβ42 secreted to cell medium; read-out: pIC50 values of Aβ42 release (converted)
Procedure: The level of activity of the compounds on Aβ formation was tested using the following method:
Compounds were diluted in 100% DMSO and stored at […] prior to use. Human Embryonic Kidney (HEK) cell line stably expressing APP with the Swedish mutation (APPswe) were cultured using Dulbecco's Modified Eagles medium (DMEM) supplied with […] glucose, Na-pyruvate and GlutaMAX with 10% FBS, 100 U/ml penicillin-streptomycin (PEST) respectively, 1×non-essential amino acids (NEAA), […], 100 μg/ml Zeocine. Cells at about 80% confluence were washed with PBS, detached from culture flasks using 1×Trypsin/EDTA diluted in PBS, re-suspended in cell media and plated in 384-well poly-d-lysine coated cell culture plates at about 10000-15000 cells/well, in 25 μL cell media. Optionally, cryo-preserved cells (frozen and stored at −140° C. in 90% cell media and 10% DMSO) were thawed, washed and plated as above. Next the cells were incubated for 15-24 h at 37° C. and 5% CO2, after which cell medium was changed. Fresh medium containing test compound diluted ×200 from prepared compound plate was added to the cells before further incubation for 4-6 hours at 37° C. and 5% CO2. After incubation with test compound the amount of Aβ peptides, including Aβ42, Aβ40, Aβ39, Aβ38 and Aβ37, secreted to cell medium was analyzed using the electrochemiluminescence assay technology from Meso Scale Discovery Technology, in combination with specific antibodies raised against the different Aβ peptides. Potential cytotoxic effects of the compounds were usually assayed by measuring the ATP content (ViaLight) from cell lysate.

Structure (SMILES)	IC50
Cc1noc(-c2ccc(Nc3ccc4c(n3)OC(c3ccccc3)CN(C)C4=O)cc2)n1 (centres unmarked) [Example 1, 4-methyl-8-(4-(3-methyl-1,2,4-oxadiazol-5-yl)phenylamino)-2-phenyl-3,4-dihydropyrido[3,2-f][1,4]oxazepin-5(2H)-one]	1580 nM
Cc1nccn1-c1ccc(Nc2ccc3c(n2)OC(c2ccccc2)CN(C)C3=O)cc1 (centres unmarked) [Example 2, 4-methyl-8-(4-(2-methyl-1H-imidazol-1-yl)phenylamino)-2-phenyl-3,4-dihydropyrido[3,2-f][1,4]oxazepin-5(2H)-one]	1260 nM
CN1CC(c2ccccc2)Oc2nc(Nc3ccc(-c4cnco4)cc3)ccc2C1=O (centres unmarked) [Example 3, 4-methyl-8-(4-(1,3-oxazol-5-yl)phenylamino)-2-phenyl-3,4-dihydropyrido[3,2-f][1,4]oxazepin-5(2H)-one]	398 nM
COc1cc(Nc2ccc3c(n2)OC(c2ccccc2)CN(C)C3=O)ccc1-n1cnc(C)c1 (centres unmarked) [Example 4, 8-(3-methoxy-4-(4-methyl-1H-imidazol-1-yl)phenylamino)-4-methyl-2-phenyl-3,4-dihydropyrido[3,2-f][1,4]oxazepin-5(2H)-one]	200 nM
CN1CC(c2ccccc2)Oc2nc(Nc3ccc(-n4ccnc4)cc3)ccc2C1=O (centres unmarked) [Example 5, 8-(4-(1H-imidazol-1-yl)phenylamino)-4-methyl-2-phenyl-3,4-dihydropyrido[3,2-f][1,4]oxazepin-5(2H)-one]	1000 nM
Cc1nccn1-c1ccc(Nc2ccc3c(n2)OC(c2ccccc2)CN(C)C3=O)cn1 (centres unmarked) [Example 6, 4-methyl-8-(6-(2-methyl-1H-imidazol-1-yl)pyridin-3-ylamino)-2-phenyl-3,4-dihydropyrido[3,2-f][1,4]oxazepin-5(2H)-one]	6310 nM
COc1cc(Nc2ccc3c(n2)OC(c2ccccc2)CN(C)C3)ccc1-n1cnc(C)c1 (centres unmarked) [Example 7, N-(3-methoxy-4-(4-methyl-1H-imidazol-1-yl)phenyl)-4-methyl-2-phenyl-2,3,4,5-tetrahydropyrido[3,2-f][1,4]oxazepin-8-amine]	39.8 nM
Cc1nccn1-c1ccc(Nc2ccc3c(n2)OC(c2ccccc2)CN(C)C3)cc1 (centres unmarked) [Example 8, 4-Methyl-N-(4-(2-methyl-1H-imidazol-1-yl)phenyl)-2-phenyl-2,3,4,5-tetrahydropyrido[3,2-f][1,4]oxazepin-8-amine]	158 nM
COc1nc(Nc2ccc3c(n2)O[C@H](c2ccccc2)CN(C)C3)ccc1-n1cnc(C)c1 [Example 9, (R)—N-(6-methoxy-5-(4-methyl-1H-imidazol-1-yl)pyridin-2-yl)-4-methyl-2-phenyl-2,3,4,5-tetrahydropyrido[3,2-f][1,4]oxazepin-8-amine]	7.94 nM
COc1cc(Nc2ccc3c(n2)O[C@H](c2ccccc2)CN(C)C3)ccc1-n1cnc(C)c1 [Example 10, (R)—N-(3-methoxy-4-(4-methyl-1H-imidazol-1-yl)phenyl)-4-methyl-2-phenyl-2,3,4,5-tetrahydropyrido[3,2-f][1,4]oxazepin-8-amine]	12.6 nM
COc1nc(Nc2ccc3c(n2)O[C@H](c2ccccc2)CN(C(C)=O)C3)ccc1-n1cnc(C)c1 [Example 11, (R)-1-(8-(6-methoxy-5-(4-methyl-1H-imidazol-1-yl)pyridin-2-ylamino)-2-phenyl-2,3-dihydropyrido[3,2-f][1,4]oxazepin-4(5H)-yl)ethanone]	15.8 nM
COc1cc(Nc2ncc3c(n2)O[C@H](c2ccccc2)CN(CCF)C3)ccc1-n1cnc(C)c1 [Example 12, (R)-6-(2-fluoroethyl)-N-(3-methoxy-4-(4-methyl-1H-imidazol-1-yl)phenyl)-8-phenyl-5,6,7,8-tetrahydropyrimido[5,4-f][1,4]oxazepin-2-amine]	15.8 nM
COc1cc(Nc2ncc3c(n2)O[C@H](c2ccccc2)CN(C)C3)ccc1-n1cnc(C)c1 [Example 13, (R)—N-(3-methoxy-4-(4-methyl-1H-imidazol-1-yl)phenyl)-6-methyl-8-phenyl-5,6,7,8-tetrahydropyrimido[5,4-f][1,4]oxazepin-2-amine]	20 nM
COc1cc(Nc2ccc3c(n2)OC(c2ccccc2)CN(CC#N)C3)ccc1-n1cnc(C)c1 (centres unmarked) [Example 14, 2-(8-(3-methoxy-4-(4-methyl-1H-imidazol-1-yl)phenylamino)-2-phenyl-2,3-dihydropyrido[3,2-f][1,4]oxazepin-4(5H)-yl)acetonitrile]	20 nM
COc1cc(Nc2ccc3c(n2)OC(c2ccccc2)CN(CCF)C3)ccc1-n1cnc(C)c1 (centres unmarked) [Example 15, 4-(2-fluoroethyl)-N-(3-methoxy-4-(4-methyl-1H-imidazol-1-yl)phenyl)-2-phenyl-2,3,4,5-tetrahydropyrido[3,2-f][1,4]oxazepin-8-amine]	31.6 nM
Cc1cn(-c2ccc(Nc3ccc4c(n3)OC(c3ccccc3)CN(C)C4)cc2F)cn1 (centres unmarked) [Example 16, N-(3-fluoro-4-(4-methyl-1H-imidazol-1-yl)phenyl)-4-methyl-2-phenyl-2,3,4,5-tetrahydropyrido[3,2-f][1,4]oxazepin-8-amine]	79.4 nM

Next, values leading:

IC50	Structure (SMILES)
79.4 nM	COc1cc(Nc2ccc3c(n2)OC(c2ccccc2)CN(C(C)=O)C3)ccc1-n1cnc(C)c1 (centres unmarked) [Example 17, 1-(8-(3-methoxy-4-(4-methyl-1H-imidazol-1-yl)phenylamino)-2-phenyl-2,3-dihydropyrido[3,2-f][1,4]oxazepin-4(5H)-yl)ethanone]
100 nM	CN1Cc2ccc(Nc3ccc(-n4ccnc4)cc3)nc2OC(c2ccccc2)C1 (centres unmarked) [Example 18, N-(4-(1H-imidazol-1-yl)phenyl)-4-methyl-2-phenyl-2,3,4,5-tetrahydropyrido[3,2-f][1,4]oxazepin-8-amine]
158 nM	COc1cc(Nc2ccc3c(n2)OC(c2cccnc2)CN(C)C3)ccc1-n1cnc(C)c1 (centres unmarked) [Example 19, N-(3-methoxy-4-(4-methyl-1H-imidazol-1-yl)phenyl)-4-methyl-2-(pyridin-3-yl)-2,3,4,5-tetrahydropyrido[3,2-f][1,4]oxazepin-8-amine]
200 nM	COc1cc(Nc2ccc3c(n2)OC(c2ccccc2)CN(CCO)C3=O)ccc1-n1cnc(C)c1 (centres unmarked) [Example 20, 4-(2-Hydroxyethyl)-8-(3-methoxy-4-(4-methyl-1H-imidazol-1-yl)phenylamino)-2-phenyl-3,4-dihydropyrido[3,2-f][1,4]oxazepin-5(2H)-one]
200 nM	COc1cc(Nc2ccc3c(n2)O[C@@H](c2ccccc2)CN(C)C3)ccc1-n1cnc(C)c1 [Example 21, (S)—N-(3-methoxy-4-(4-methyl-1H-imidazol-1-yl)phenyl)-4-methyl-2-phenyl-2,3,4,5-tetrahydropyrido[3,2-f][1,4]oxazepin-8-amine]
501 nM	COc1cc(Nc2ccc3c(n2)OC(c2cccnc2)CN(C(C)=O)C3)ccc1-n1cnc(C)c1 (centres unmarked) [Example 22, 1-(8-(3-Methoxy-4-(4-methyl-1H-imidazol-1-yl)phenylamino)-2-(pyridin-3-yl)-2,3-dihydropyrido[3,2-f][1,4]oxazepin-4(5H)-yl)ethanone]
501 nM	Cc1nccn1-c1ccc(Nc2ccc3c(n2)OC(c2ccccc2)CN(C)C3)cn1 (centres unmarked) [Example 23, 4-methyl-N-(6-(2-methyl-1H-imidazol-1-yl)pyridin-3-yl)-2-phenyl-2,3,4,5-tetrahydropyrido[3,2-f][1,4]oxazepin-8-amine]
794 nM	Cc1nccn1-c1ccc(Nc2ccc3c(n2)OC(c2ccccc2)CN(CCO)C3=O)cc1 (centres unmarked) [Example 24, 4-(2-hydroxyethyl)-8-(4-(2-methyl-1H-imidazol-1-yl)phenylamino)-2-phenyl-3,4-dihydropyrido[3,2-f][1,4]oxazepin-5(2H)-one]
5010 nM	Cc1nccn1-c1ccc(Nc2ccc3c(n2)N(C2CCCC2)CCN(C)C3=O)cc1 [Example 25, 1-cyclopentyl-4-methyl-8-(4-(2-methyl-1H-imidazol-1-yl)phenylamino)-3,4-dihydro-1H-pyrido[2,3-e][1,4]diazepin-5(2H)-one]
20000 nM	OCCN1Cc2ccc(Nc3ccc(-c4nnc5n4CCC5)cc3)nc2O[C@H](c2ccccc2)C1 [Example 26, (R)-2-(8-(4-(6,7-Dihydro-5H-pyrrolo[2,1-c][1,2,4]triazol-3-yl)phenylamino)-2-phenyl-2,3-dihydropyrido[3,2-f][1,4]oxazepin-4(5H)-yl)ethanol]
7940 nM	Cc1cc(C2CN(CC#N)Cc3ccc(Nc4ccc(-n5ccnc5C)cc4)nc3O2)n(C)n1 (centres unmarked) [Example 27, 2-(2-(1,3-Dimethyl-1H-pyrazol-5-yl)-8-(4-(2-methyl-1H-imidazol-1-yl)phenylamino)-2,3-dihydropyrido[3,2-f][1,4]oxazepin-4(5H)-yl)acetonitrile]
6310 nM	CN1CC(c2ccccc2)Oc2nc(Oc3ccc(-n4ccnc4)cc3)ncc2C1=O (centres unmarked) [Example 28, 2-(4-(1H-Imidazol-1-yl)phenoxy)-6-methyl-8-phenyl-7,8-dihydropyrimido[5,4-f][1,4]oxazepin-5(6H)-one]
1260 nM	COc1cc(Nc2ccc3c(n2)O[C@H](c2ccccc2)CN(CCO)C3)ccc1C#N [Example 29, (R)-4-(4-(2-Hydroxyethyl)-2-phenyl-2,3,4,5-tetrahydropyrido[3,2-f][1,4]oxazepin-8-ylamino)-2-methoxybenzonitrile]
